Assay results from ChEMBL document CHEMBL1201862, “PubChem BioAssay data set” (2004).
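In this assay, cells in 96-well plates receive the compound at five concentrations for 48 hours. Endpoints are linearly interpolated between the surrounding concentrations. GI50 = concentration required for 50% inhibition of growth.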 Activity calls are given as the source filed them. Cut-off read from the data, not from the text of the source: active = GI50 up to about 1.1 µM and inactive = higher.

Key:
Assay in all cases: growth of human tumour cells (NCI), 48 h
[1] = test system: CAKI-1
[2] = test system: COLO 205
[3] = test system: DU-145
[4] = test system: HCC 2998
[5] = test system: HOP-62
[6] = test system: HOP-92
[7] = test system: HT-29
[8] = test system: Hs-578T
[9] = test system: IGROV-1
[10] = test system: KM12
[11] = test system: LOX IMVI
[12] = test system: M14
[13] = test system: MDA-MB-231
[14] = test system: MDA-MB-435
[15] = test system: NCI-H522
[16] = test system: NCI/ADR-RES
[17] = test system: SF-295
[18] = test system: SK-MEL-2
[19] = test system: SNB-75
[20] = test system: T47D

SMILES | GI50 [1] | GI50 [2] | GI50 [3] | GI50 [4] | GI50 [5] | GI50 [6] | GI50 [7] | GI50 [8] | GI50 [9] | GI50 [10] | GI50 [11] | GI50 [12] | GI50 [13] | GI50 [14] | GI50 [15] | GI50 [16] | GI50 [17] | GI50 [18] | GI50 [19] | GI50 [20]
COc1ccc(C(C)c2cc3c(cc2OC)OCO3)cc1 (stereo not given) | 0.107 µM (active) | 0.135 µM (active) | 0.231 µM (active) | 0.193 µM (active) | 0.124 µM (active) | 1.45 µM (inactive) | 0.0798 µM (active) | 0.0207 µM (active) | 0.104 µM (active) | 0.119 µM (active) | 0.205 µM (active) | 0.0738 µM (active) | 0.112 µM (active) | 0.0175 µM (active) | 0.0455 µM (active) | 0.0268 µM (active) | 0.0611 µM (active) | 0.0767 µM (active) | 0.06 µM (active) | 2.08 µM (inactive)
S=C(S)NCCN1CCNCC1 | 39.5 µM (inactive) | 18 µM (inactive) | 36.1 µM (inactive) | 22.7 µM (inactive) | > 100 µM (inactive) | 75.9 µM (inactive) | 59.7 µM (inactive) | > 100 µM (inactive) | 49.5 µM (inactive) | > 100 µM (inactive) | 40.1 µM (inactive) | 31.2 µM (inactive) | > 100 µM (inactive) | 62.1 µM (inactive) | 14.7 µM (inactive) | > 100 µM (inactive) | > 100 µM (inactive) | 67.1 µM (inactive) | > 100 µM (inactive) | 10.7 µM (inactive)
N=C(N)NC(=N)Nc1ccc(S(N)(=O)=O)cc1 | > 100 µM (inactive) | > 100 µM (inactive) | > 100 µM (inactive) | 6.27 µM (inactive) | > 100 µM (inactive) | > 100 µM (inactive) | > 100 µM (inactive) | > 100 µM (inactive) | > 100 µM (inactive) | > 100 µM (inactive) | > 100 µM (inactive) | > 100 µM (inactive) | > 100 µM (inactive) | > 100 µM (inactive) | > 100 µM (inactive) | > 100 µM (inactive) | > 100 µM (inactive) | > 100 µM (inactive) | > 100 µM (inactive) | > 100 µM (inactive)
CC(C)NCC(O)c1ccc(O)c2ncccc12 (stereo not given) | 64.9 µM (inactive) | 18.7 µM (inactive) | 37.2 µM (inactive) | 46 µM (inactive) | 35.5 µM (inactive) | > 100 µM (inactive) | 36.4 µM (inactive) | > 100 µM (inactive) | 33.5 µM (inactive) | 54.6 µM (inactive) | 30.3 µM (inactive) | 42.4 µM (inactive) | 27 µM (inactive) | > 100 µM (inactive) | 47.2 µM (inactive) | 27.7 µM (inactive) | 30.9 µM (inactive) | 52.8 µM (inactive) | > 100 µM (inactive) | 33.8 µM (inactive)
O=C(Nc1sccc1S(=O)(=O)c1ccc(Cl)cc1)c1ccc(Cl)cc1 | 80.4 µM (inactive) | > 100 µM (inactive) | > 100 µM (inactive) | > 100 µM (inactive) | 39.4 µM (inactive) | 73.1 µM (inactive) | > 100 µM (inactive) | 51.3 µM (inactive) | > 100 µM (inactive) | > 100 µM (inactive) | > 100 µM (inactive) | > 100 µM (inactive) | 35.2 µM (inactive) | > 100 µM (inactive) | > 100 µM (inactive) | > 100 µM (inactive) | 34 µM (inactive) | 59.8 µM (inactive) | 31.8 µM (inactive) | > 100 µM (inactive)
Ic1cccc(/C=C/CN2CCN(CCOC(c3ccccc3)c3ccccc3)CC2)c1 | 17.5 µM (inactive) | 8.51 µM (inactive) | 13.2 µM (inactive) | 6.97 µM (inactive) | 17 µM (inactive) | 14.4 µM (inactive) | 6.47 µM (inactive) | 28 µM (inactive) | 19.7 µM (inactive) | 14.9 µM (inactive) | 13.2 µM (inactive) | 14.6 µM (inactive) | 14 µM (inactive) | 14.4 µM (inactive) | 16.1 µM (inactive) | 16 µM (inactive) | 17.5 µM (inactive) | 17.7 µM (inactive) | 11.5 µM (inactive) | 10.6 µM (inactive)
COC(=O)NC1C(C)OC(OC2C/C=C(/C)C3C=CC4C(OC5CC(OC6CCC(OC7CC(O)C(OC8CCC(O)C(C)O8)C(C)O7)C(C)O6)C(OC(C)=O)C(C)O5)C(C)CC(C)C4C3(C)/C(O)=C3/C(=O)OC4(CC(C=O)=CC(O)C4/C=C\2C)C3=O)CC1(C)[N+](=O)[O-] (stereo not given) | 2.49 µM (inactive) | 1.1 µM (active) | 1.58 µM (inactive) | 0.951 µM (active) | 0.767 µM (active) | 1.06 µM (active) | 1.1 µM (active) | 0.282 µM (active) | 3.44 µM (inactive) | 0.809 µM (active) | 0.397 µM (active) | 1.07 µM (active) | 0.755 µM (active) | 0.382 µM (active) | 0.824 µM (active) | 6.17 µM (inactive) | 0.993 µM (active) | 0.475 µM (active) | 1.75 µM (inactive) | 2.06 µM (inactive)
Nc1ncc(Cc2nc3ccccc3s2)s1 | 53.3 µM (inactive) | 34.4 µM (inactive) | > 100 µM (inactive) | > 100 µM (inactive) | > 100 µM (inactive) | 68.4 µM (inactive) | 29.3 µM (inactive) | 15.1 µM (inactive) | 63.8 µM (inactive) | 56.4 µM (inactive) | > 100 µM (inactive) | 42.3 µM (inactive) | 69.8 µM (inactive) | 39.2 µM (inactive) | 53.1 µM (inactive) | 91.6 µM (inactive) | 40.9 µM (inactive) | > 100 µM (inactive) | > 100 µM (inactive) | 48.6 µM (inactive)
CC1(C)OC2C(O)C(CO)OC2(C(F)F)O1 (stereo not given) | > 100 µM (inactive) | > 100 µM (inactive) | > 100 µM (inactive) | > 100 µM (inactive) | > 100 µM (inactive) | > 100 µM (inactive) | > 100 µM (inactive) | > 100 µM (inactive) | > 100 µM (inactive) | > 100 µM (inactive) | > 100 µM (inactive) | > 100 µM (inactive) | > 100 µM (inactive) | > 63.5 µM (inactive) | > 100 µM (inactive) | > 100 µM (inactive) | > 100 µM (inactive) | > 100 µM (inactive) | > 100 µM (inactive) | > 100 µM (inactive)
CCOC(=O)c1ccc(-c2cccs2)[nH]1 | > 92.5 µM (inactive) | 60.7 µM (inactive) | 49 µM (inactive) | > 100 µM (inactive) | > 66.4 µM (inactive) | 12.1 µM (inactive) | 54 µM (inactive) | 76.9 µM (inactive) | 83.2 µM (inactive) | > 100 µM (inactive) | > 100 µM (inactive) | 63.5 µM (inactive) | > 61.8 µM (inactive) | 44.3 µM (inactive) | 32.7 µM (inactive) | 42.2 µM (inactive) | > 100 µM (inactive) | > 100 µM (inactive) | > 100 µM (inactive) | 31.6 µM (inactive)
COc1cc(/C=N/c2nc3cc4sc(/N=C/c5cc(OC)c(OC)c(OC)c5)nc4cc3s2)cc(OC)c1OC | > 100 µM (inactive) | 28.4 µM (inactive) | > 100 µM (inactive) | > 100 µM (inactive) | 57.1 µM (inactive) | > 100 µM (inactive) | 52.7 µM (inactive) | > 100 µM (inactive) | > 100 µM (inactive) | 52.1 µM (inactive) | 42.9 µM (inactive) | 66.8 µM (inactive) | 79.4 µM (inactive) | 39.1 µM (inactive) | 45.8 µM (inactive) | 34.1 µM (inactive) | 56.8 µM (inactive) | 72.4 µM (inactive) | 75 µM (inactive) | 51.1 µM (inactive)
CC(=O)OC1CC(n2cc(F)c(=O)[nH]c2=O)OC1CO (stereo not given) | 0.818 µM (active) | 8.75 µM (inactive) | 1.15 µM (inactive) | < 0.0279 µM (active) | 0.152 µM (active) | 1.49 µM (inactive) | 19.9 µM (inactive) | 7.4 µM (inactive) | > 61.7 µM (inactive) | > 93.3 µM (inactive) | 0.324 µM (active) | 2.16 µM (inactive) | > 55.2 µM (inactive) | 15.7 µM (inactive) | 2.15 µM (inactive) | 1.93 µM (inactive) | 0.209 µM (active) | > 28.8 µM (inactive) | 3.98 µM (inactive) | 12.1 µM (inactive)
COC(=O)c1ccc2c(c1)C(NC(C)=O)CCc1cc(OC)c(OC)c(OC)c1-2 (stereo not given) | 0.0177 µM (active) | 0.0119 µM (active) | 0.014 µM (active) | 0.0327 µM (active) | 0.0158 µM (active) | 0.0391 µM (active) | 0.0125 µM (active) | 0.0122 µM (active) | 0.0163 µM (active) | < 0.0115 µM (active) | 0.0149 µM (active) | 0.0153 µM (active) | < 0.02 µM (active) | < 0.01 µM (active) | 0.018 µM (active) | 0.0416 µM (active) | 0.0117 µM (active) | 0.0208 µM (active) | 0.0129 µM (active) | > 100 µM (inactive)
C=C1C(=O)O[C@@H]2C[C@@H]3[C@]4(CC[C@]5(C)[C@@H]([C@H](C)CC/C=C(\C)C=O)CC[C@@]35C)C[C@]4(CCC(=O)OC)[C@H]12 | 3.26 µM (inactive) | 2.39 µM (inactive) | 1.79 µM (inactive) | 2.14 µM (inactive) | 2.38 µM (inactive) | 1.94 µM (inactive) | 4.39 µM (inactive) | 3.01 µM (inactive) | 2.13 µM (inactive) | 1.86 µM (inactive) | 1.28 µM (inactive) | 1.36 µM (inactive) | 1.95 µM (inactive) | 1.51 µM (inactive) | 3.09 µM (inactive) | 2.35 µM (inactive) | 2.14 µM (inactive) | 1.77 µM (inactive) | 2.4 µM (inactive) | 1.9 µM (inactive)
